Experimental data: patent US10683269B2 (MISSION THERAPEUTICS LIMITED, priority 2016, dated 2020)

Target: T1, USP7 (Homo sapiens, UniProt Q93009)
T1 construct: The USP7 construct was PCR amplified and cloned into a pFLAG-CMV-6a vector (Sigma-Aldrich) with an N-terminal FLAG tag; made in house; host or cells: HEK293T
Experiment: USP7 biochemical IC50 assay (fluorescence polarisation, TAMRA labelled peptide linked to ubiquitin via an iso-peptide bond)
Settings: 30 min pre-incubation of enzyme and compound, read after 2 hr incubation at room temperature, read-out: IC50 range
Outline: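 Fluorescence polarisation at 540 nm excitation/590 nm emission, read immediately and after 2 hr at room temperature, following addition of 50 nM TAMRA-labelled iso-peptide ubiquitin substrate.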

T1 sequence (Q93009 whole entry): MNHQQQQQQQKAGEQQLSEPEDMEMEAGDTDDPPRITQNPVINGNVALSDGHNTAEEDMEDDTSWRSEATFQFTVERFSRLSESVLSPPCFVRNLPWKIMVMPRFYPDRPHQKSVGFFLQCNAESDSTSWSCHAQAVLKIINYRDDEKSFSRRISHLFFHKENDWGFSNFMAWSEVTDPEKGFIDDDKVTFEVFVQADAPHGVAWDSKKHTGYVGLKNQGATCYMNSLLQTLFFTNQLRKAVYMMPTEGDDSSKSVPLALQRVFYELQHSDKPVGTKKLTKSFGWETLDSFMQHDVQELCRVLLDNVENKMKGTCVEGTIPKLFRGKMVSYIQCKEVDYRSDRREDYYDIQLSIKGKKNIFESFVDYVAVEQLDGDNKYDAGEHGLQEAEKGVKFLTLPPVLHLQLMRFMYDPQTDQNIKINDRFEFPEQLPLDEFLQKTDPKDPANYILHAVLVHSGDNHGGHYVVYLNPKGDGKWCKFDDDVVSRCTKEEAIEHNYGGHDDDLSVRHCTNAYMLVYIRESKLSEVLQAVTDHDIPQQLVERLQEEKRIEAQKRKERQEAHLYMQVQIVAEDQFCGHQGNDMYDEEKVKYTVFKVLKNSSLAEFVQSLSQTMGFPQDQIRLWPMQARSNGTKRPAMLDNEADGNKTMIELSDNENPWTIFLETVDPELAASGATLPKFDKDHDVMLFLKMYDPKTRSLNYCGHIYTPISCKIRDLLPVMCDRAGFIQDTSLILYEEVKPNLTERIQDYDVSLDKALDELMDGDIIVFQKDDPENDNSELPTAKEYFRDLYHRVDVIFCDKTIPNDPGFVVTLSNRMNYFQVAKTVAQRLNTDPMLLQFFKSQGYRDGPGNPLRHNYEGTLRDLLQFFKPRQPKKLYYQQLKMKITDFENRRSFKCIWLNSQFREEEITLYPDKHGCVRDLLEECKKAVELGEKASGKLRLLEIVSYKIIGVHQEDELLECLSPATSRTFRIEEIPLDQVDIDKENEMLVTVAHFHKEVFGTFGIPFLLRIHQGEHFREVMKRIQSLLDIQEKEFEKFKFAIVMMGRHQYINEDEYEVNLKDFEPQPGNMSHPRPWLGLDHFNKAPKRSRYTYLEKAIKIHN

Structure (SMILES)	IC50
CC(=O)N1CCC(C(=O)Nc2cc3c(c(-c4ccccc4)c2)CN(C#N)C3)CC1 [Example 47, 1-acetyl-N-(2-cyano-7-phenylisoindolin-5-yl)piperidine-4-carboxamide]	< 1 µM
CN1CCC[C@H](C(=O)Nc2cc3c(c(-c4ccccc4)c2)CN(C#N)C3)C1 [Example 37, (S)—N-(2-cyano-7-phenylisoindolin-5-yl)-1-methylpiperidine-3-carboxamide]	< 1 µM
N#Cc1ccc(-c2cccc3c2CN(C#N)C3)c2c1CCC2=O [Example 176, 4-(7-cyano-3-oxo-2,3-dihydro-1H-inden-4-yl)isoindoline-2-carbonitrile]	1 to 10 µM
CC(=O)NCc1cc2c(c(-c3ccc(C#N)cc3C#N)c1)CN(C#N)C2 [Example 226, N-((2-cyano-7-(2,4-dicyanophenyl)isoindolin-5-yl)methyl)acetamide]	1 to 10 µM
N#Cc1ccc(-c2cc(CNc3ccn[nH]3)cc3c2CN(C#N)C3)cc1 [Example 230, 6-(((1H-pyrazol-5-yl)amino)methyl)-4-(4-cyanophenyl)isoindoline-2-carbonitrile]	< 1 µM
CN1CCOC(C(=O)Nc2cc3c(c(-c4ccccc4)c2)CN(C#N)C3)C1 (centres unmarked) [Example 53, N-(2-cyano-7-phenylisoindolin-5-yl)-4-methylmorpholine-2-carboxamide]	< 1 µM
N#CN1Cc2nc(NCc3ncccn3)nc(-c3ccccc3)c2C1 [Example 113, 4-phenyl-2-((pyrimidin-2-ylmethyl)amino)-5,7-dihydro-6H-pyrrolo[3,4-d]pyrimidine-6-carbonitrile]	1 to 10 µM
N#CN1Cc2nc(NCC3CCOCC3)nc(-c3ccccc3)c2C1 [Example 111, 4-phenyl-2-(((tetrahydro-2H-pyran-4-yl)methyl)amino)-5,7-dihydro-6H-pyrrolo[3,4-d]pyrimidine-6-carbonitrile]	1 to 10 µM
Cc1[nH]ncc1-c1nc2c(c(N3CCc4ccccc4C3)n1)CN(C#N)C2 [Example 139, 4-(3,4-dihydroisoquinolin-2(1H)-yl)-2-(5-methyl-1H-pyrazol-4-yl)-5,7-dihydro-6H-pyrrolo[3,4-d]pyrimidine-6-carbonitrile]	1 to 10 µM
COc1ccc(-c2cc(NC(=O)[C@@H]3CCCN(C)C3)cc3c2CN(C#N)C3)cc1 [Example 32, (R)-N-(2-cyano-7-(4-methoxyphenyl)isoindolin-5-yl)-1-methylpiperidine-3-carboxamide]	< 1 µM
Cn1nccc1CNc1nc2c(c(-c3cccc(N4CCCC4=O)c3)n1)CN(C#N)C2 [Example 290, 2-(((1-methyl-1H-pyrazol-5-yl)methyl)amino)-4-(3-(2-oxopyrrolidin-1-yl)phenyl)-5,7-dihydro-6H-pyrrolo[3,4-d]pyrimidine-6-carbonitrile]	1 to 10 µM
CC(=O)N(C)c1cc2c(c(-c3ccccc3)c1)CN(C#N)C2 [Example 58, N-(2-cyano-7-phenylisoindolin-5-yl)-N-methylacetamide]	1 to 10 µM
CNC(=O)c1cc2c(c(-c3cc(OC)cnc3C#N)c1)CN(C#N)C2 [Example 293, 2-cyano-7-(2-cyano-5-methoxypyridin-3-yl)-N-methylisoindoline-5-carboxamide]	1 to 10 µM
CS(=O)(=O)Cc1cc2c(c(-c3ccc(C#N)cc3)c1)CN(C#N)C2 [Example 216, 4-(4-cyanophenyl)-6-((methylsulfonyl)methyl)isoindoline-2-carbonitrile]	1 to 10 µM
N#Cc1ccccc1-c1cc(NC[C@H](O)CO)cc2c1CN(C#N)C2 [Example 283, (S)-4-(2-cyanophenyl)-6-((2,3-dihydroxypropyl)amino)isoindoline-2-carbonitrile]	< 1 µM
N#CN1Cc2nc(NCCO)nc(N3CCC(Oc4ccccc4)CC3)c2C1 [Example 206, 2-((2-hydroxyethyl)amino)-4-(4-phenoxypiperidin-1-yl)-5,7-dihydro-6H-pyrrolo[3,4-d]pyrimidine-6-carbonitrile]	1 to 10 µM

Structure (SMILES)	IC50
CN1CCN(c2ccc(-c3nc(NCCO)nc4c3CN(C#N)C4)cc2)CC1 [Example 212, 2-((2-hydroxyethyl)amino)-4-(4-(4-methylpiperazin-1-yl)phenyl)-5,7-dihydro-6H-pyrrolo[3,4-d]pyrimidine-6-carbonitrile]	1 to 10 µM
Cn1cc2cc(-c3cccc4c3CN(C#N)C4)ccc2n1 [Example 11, 4-(2-methyl-2H-indazol-5-yl)isoindoline-2-carbonitrile]	1 to 10 µM
CS(=O)(=O)CCNc1nc2c(c(-c3ccccc3)n1)CN(C#N)C2 [Example 188, 2-((2-(methylsulfonyl)ethyl)amino)-4-phenyl-5,7-dihydro-6H-pyrrolo[3,4-d]pyrimidine-6-carbonitrile]	1 to 10 µM
CC(=O)Nc1nc2c(c(-c3cccc(OC(F)(F)F)c3)n1)CN(C#N)C2 [Example 106, N-(6-cyano-4-(3-(trifluoromethoxy)phenyl)-6,7-dihydro-5H-pyrrolo[3,4-d]pyrimidin-2-yl)acetamide]	1 to 10 µM
N#CN1Cc2cc(NC(=O)c3cccnc3)cc(-c3ccccc3)c2C1 [Example 23, N-(2-cyano-7-phenylisoindolin-5-yl)nicotinamide]	30 to 100 µM
N#CN1Cc2cccc(-c3ccccc3C(=O)NCCN)c2C1 [Example 77, N-(2-aminoethyl)-2-(2-cyanoisoindolin-4-yl)benzamide]	1 to 10 µM
CN1CCCC(C(=O)N(C)c2cc3c(c(-c4ccccc4)c2)CN(C#N)C3)C1 (centres unmarked) [Example 59, N-(2-cyano-7-phenylisoindolin-5-yl)-N,1-dimethylpiperidine-3-carboxamide]	1 to 10 µM
CN1CCC(c2cccc3c2CN(C#N)C3)CC1 [Example 14, 4-(1-methylpiperidin-4-yl)isoindoline-2-carbonitrile]	30 to 100 µM
N#CN1Cc2nc(NCc3ccccn3)cc(-c3ccc(F)cc3)c2C1 [Example 247, 4-(4-fluorophenyl)-2-((pyridin-2-ylmethyl)amino)-5,7-dihydro-6H-pyrrolo[3,4-b]pyridine-6-carbonitrile]	1 to 10 µM
N#CN1Cc2cccc(N3C(=O)CCCC3=O)c2C1 [Example 268, 4-(2,6-dioxopiperidin-1-yl)isoindoline-2-carbonitrile]	10 to 30 µM
COC(CO)CNc1cc2c(c(-c3ccc(C#N)cc3)c1)CN(C#N)C2 (centres unmarked) [Example 284, 4-(4-Cyanophenyl)-6-((3-hydroxy-2-methoxypropyl)amino)isoindoline-2-carbonitrile]	1 to 10 µM
N#CN1Cc2nccc(-c3cccc(C(=O)NCc4ccccc4)c3)c2C1 [Example 15, N-benzyl-3-(6-cyano-6,7-dihydro-5H-pyrrolo[3,4-b]pyridin-4-yl)benzamide]	10 to 30 µM
N#Cc1ccc(-c2cccc3c2CN(C#N)C3)c(C(=O)N2CCC2)c1 [Example 4, 4-(2-(azetidine-1-carbonyl)-4-cyanophenyl)isoindoline-2-carbonitrile]	1 to 10 µM
CC(=O)Nc1cc2c(c(-c3ccccc3C(N)=O)c1)CN(C#N)C2 [Example 24, 2-(6-acetamido-2-cyanoisoindolin-4-yl)benzamide]	1 to 10 µM
N#CN1Cc2cccc(NC(=O)c3cc(-c4cnccn4)[nH]n3)c2C1 [Example 86, N-(2-cyanoisoindolin-4-yl)-5-(pyrazin-2-yl)-1H-pyrazole-3-carboxamide]	1 to 10 µM
N#CN1Cc2nc(NCc3ccccn3)nc(-c3ccccc3)c2C1 [Example 117, 4-phenyl-2-((pyridin-2-ylmethyl)amino)-5,7-dihydro-6H-pyrrolo[3,4-d]pyrimidine-6-carbonitrile]	1 to 10 µM
